What all share (type): cell-based
Conditions in all cases: 72 hours treatment, cell survival by CellTiter-Glo, 2% fetal bovine serum

The subject of one test is A549 cells. The test can be described thus: Cell viability (CellTiter-Glo ATP content) in A549 cells. As for the experimental part: (§1) Logarithmically growing A549, LOX and MelJuSo cells (ATCC) were plated in antibiotic-free RPMI medium (Coming) supplemented with 2% fetal bovine serum (Gemini Bio-products) at a density of 5,000 cells per well in clear-bottom 96-well plates. The next day cells were treated (triplicates) with increasing doses of a compound of the present disclosure (dissolved in DMSO) and DMSO vehicle controls (final DMSO concentration of 0.5%) for 72 hours and subsequently assessed for cell viability by measuring ATP content with CellTiter-Glo Luminescent Cell Viability Assay (Promega). Signal intensity was measured on a Glomax™ 96 Microplate Luminometer (Promega) and percent cell survival was calculated based on the reading of vehicle control cells set as 100%.

For another test, the system named is LOX cells. Put plainly: Cell viability (CellTiter-Glo ATP content) in LOX cells. On the procedure: as §1
The subject of the next test is MelJuSo cells. The test can be described thus: Cell viability (CellTiter-Glo ATP content) in MelJuSo cells. As for the experimental part:
as §1

These results are taken from patent publication US12227482B2, “Compounds and compositions for the treatment of cancer” (The Regents of the University of California, priority 2016, dated 2025).

In the case of `CCCCC1C(c2ccc(F)cc2)=NN(c2ccccc2)C1(C)C(=O)NCCCCC(C)(C)O` (stereo not drawn) [Compound 2, 4-butyl-3-(4-fluorophenyl)-N-(5-hydroxy-5-methylhexyl)-5-methyl-1-phenyl-4,5-dihydro-1H-pyrazole-5-carboxamide], the IC50 with A549 cells (Homo sapiens, A549, 72 h) lay within 1 to 2 µM; with LOX cells (LOX, 72 h) it was 1 to 2 µM; in the test with MelJuSo cells (Homo sapiens, MEL-JUSO), 0.5 to 1 µM.
As for `CCCCC1C(c2ccc(F)cc2)=NN(c2ccccc2)C1(C)C(=O)NCc1ccc(Cl)c(Cl)c1` (stereo not drawn) [Compound 40, 4-butyl-N-(3,4-dichlorobenzyl)-3-(4-fluorophenyl)-5-methyl-1-phenyl-4,5-dihydro-1H-pyrazole-5-carboxamide], the IC50 with A549 cells (Homo sapiens, A549, 72 h) is greater than 2 µM; with LOX cells (LOX, 72 h) it was greater than 2 µM; in the test on MelJuSo cells (Homo sapiens, MEL-JUSO), greater than 2 µM.
Consider `CCCCC1C(c2ccc(F)cc2)=NN(c2ccc(F)c(Cl)c2)C1(C)C(=O)NCCCCC(C)(C)O` (stereo not drawn) [Compound 11, 4-butyl-1-(3-chloro-4-fluorophenyl)-3-(4-fluorophenyl)-N-(5-hydroxy-5-methylhexyl)-5-methyl-4,5-dihydro-1H-pyrazole-5-carboxamide], for which the IC50 was greater than 2 µM in the test with A549 cells (Homo sapiens, A549, 72 h); greater than 2 µM in the test with LOX cells (LOX, 72 h); 1 to 2 µM in the test on MelJuSo cells (Homo sapiens, MEL-JUSO).
On to `CCCCC1C(c2ccc(F)cc2)=NN(c2ccc(C)cc2)C1(C)C(=O)NCCOC` (stereo not drawn) [Compound 59, 4-butyl-3-(4-fluorophenyl)-N-(2-methoxyethyl)-5-methyl-1-p-tolyl-4,5-dihydro-1H-pyrazole-5-carboxamide], for which the IC50 was 0.25 to 0.5 µM with A549 cells (Homo sapiens, A549, 72 h); less than 0.25 µM with LOX cells (LOX, 72 h); less than 0.25 µM in the test with MelJuSo cells (Homo sapiens, MEL-JUSO).
Turning to `CC(C)(CO)CCCNC(=O)C1(C)C(c2ccc(Cl)o2)C(c2ccc(F)cc2F)=NN1c1ccc(F)cc1F` (stereo not drawn) [Compound 133, 4-(5-chlorofuran-2-yl)-1,3-bis(2,4-difluorophenyl)-N-(5-hydroxy-4,4-dimethylpentyl)-5-methyl-4,5-dihydro-1H-pyrazole-5-carboxamide], the IC50 in the test on A549 cells (Homo sapiens, A549, 72 h) was less than 0.25 µM; with LOX cells (LOX, 72 h) it was less than 0.25 µM; in the test on MelJuSo cells (Homo sapiens, MEL-JUSO), less than 0.25 µM.
As for `CCCCC1(C)C(c2ccc(F)cc2)=NN(c2ccc(F)cc2F)C1(C)C(=O)NCCOC` (stereo not drawn) [Compound 88, 4-butyl-1-(2,4-difluorophenyl)-3-(4-fluorophenyl)-N-(2-methoxyethyl)-4,5-dimethyl-4,5-dihydro-1H-pyrazole-5-carboxamide], the IC50 was greater than 2 µM in the test on A549 cells (Homo sapiens, A549, 72 h); greater than 2 µM in the test with LOX cells (LOX, 72 h); greater than 2 µM in the test on MelJuSo cells (Homo sapiens, MEL-JUSO).
Consider `CCCCC1C(c2ccc(F)cc2)=NN(c2ccccc2)C1(C)C(=O)NC(C)(C)CO` (stereo not drawn) [Compound 37, 4-butyl-3-(4-fluorophenyl)-N-(1-hydroxy-2-methylpropan-2-yl)-5-methyl-1-phenyl-4,5-dihydro-1H-pyrazole-5-carboxamide], for which the IC50 with A549 cells (Homo sapiens, A549, 72 h) was greater than 2 µM; with LOX cells (LOX, 72 h) it was greater than 2 µM; with MelJuSo cells (Homo sapiens, MEL-JUSO), greater than 2 µM.
On to `CC1(C(=O)NCC(=O)N2CCS(=O)(=O)CC2)C(c2cccs2)C(c2ccc(F)cc2)=NN1c1ccc(F)cc1F` (stereo not drawn) [Compound 105, 1-(2,4-difluorophenyl)-3-(4-fluorophenyl)-5-methyl-N-(1,1-dioxo-1-thiomorpholine-2-oxoethyl)-4-(thiophen-2-yl)-4,5-dihydro-1H-pyrazole-5-carboxamide], for which the IC50 was greater than 2 µM with A549 cells (Homo sapiens, A549, 72 h); greater than 2 µM with LOX cells (LOX, 72 h); greater than 2 µM with MelJuSo cells (Homo sapiens, MEL-JUSO).
With `CCCCC1C(c2ccc(F)cc2F)=NN(c2ccccc2)C1(C)C(=O)NCCOC` (stereo not drawn) [Compound 57, 4-butyl-3-(2,4-difluorophenyl)-N-(2-methoxyethyl)-5-methyl-1-phenyl-4,5-dihydro-1H-pyrazole-5-carboxamide], the IC50 in the test on A549 cells (Homo sapiens, A549, 72 h) fell in the range of 1 to 2 µM; with LOX cells (LOX, 72 h), 0.5 to 1 µM; with MelJuSo cells (Homo sapiens, MEL-JUSO), 0.5 to 1 µM.
In the case of `CCCCC1C(c2ccc(F)cc2)=NN(c2ccccc2)C1(C)C(=O)NCCCN(C)C` (stereo not drawn) [Compound 49, 4-butyl-N-(3-(dimethylamino)propyl)-3-(4-fluorophenyl)-5-methyl-1-phenyl-4,5-dihydro-1H-pyrazole-5-carboxamide], the IC50 was greater than 2 µM in the test with A549 cells (Homo sapiens, A549, 72 h); greater than 2 µM in the test on LOX cells (LOX, 72 h); greater than 2 µM in the test on MelJuSo cells (Homo sapiens, MEL-JUSO).
`CCCCC1C(c2ccc(F)cc2)=NN(c2ccc(F)cc2F)C1(C)C(=O)NCCOCC` (stereo not drawn) [Compound 32, 4-butyl-1-(2,4-difluorophenyl)-N-(2-ethoxyethyl)-3-(4-fluorophenyl)-5-methyl-4,5-dihydro-1H-pyrazole-5-carboxamide]: the IC50 with A549 cells (Homo sapiens, A549, 72 h) lay within 0.5 to 1 µM; in the test with LOX cells (LOX, 72 h), 0.5 to 1 µM; in the test with MelJuSo cells (Homo sapiens, MEL-JUSO) it was 0.25 to 0.5 µM.
In the case of `CCCCC1C(c2ccc(Cl)cc2F)=NN(c2ccccc2)C1(C)C(=O)NCCOC` (stereo not drawn) [Compound 54, 4-butyl-3-(4-chloro-2-fluorophenyl)-N-(2-methoxyethyl)-5-methyl-1-phenyl-4,5-dihydro-1H-pyrazole-5-carboxamide], the IC50 was greater than 2 µM with A549 cells (Homo sapiens, A549, 72 h); greater than 2 µM in the test with LOX cells (LOX, 72 h); greater than 2 µM in the test with MelJuSo cells (Homo sapiens, MEL-JUSO).
On to `CCCCC1C(c2ccc(F)cc2)=NN(c2ccc(C)cc2)C1(C)C(=O)NCCCC(C)(C)CO` (stereo not drawn) [Compound 62, 4-butyl-3-(4-fluorophenyl)-N-(5-hydroxy-4,4-dimethylpentyl)-5-methyl-1-p-tolyl-4,5-dihydro-1H-pyrazole-5-carboxamide], for which the IC50 is greater than 2 µM in the test with A549 cells, 0.5 to 1 µM in the test with LOX cells and 0.25 to 0.5 µM with MelJuSo cells.
Take `CC(C)(CO)CCCNC(=O)C1(C)C(c2ccsc2)C(c2ccc(F)cc2F)=NN1c1ccc(F)cc1F` (stereo not drawn) [Compound 117, 1,3-bis(2,4-difluorophenyl)-N-(5-hydroxy-4,4-dimethylpentyl)-5-methyl-4-(thiophen-3-yl)-4,5-dihydro-1H-pyrazole-5-carboxamide]: the IC50 lay within 0.5 to 1 µM with A549 cells (Homo sapiens, A549, 72 h); 0.5 to 1 µM in the test on LOX cells (LOX, 72 h); 0.25 to 0.5 µM in the test on MelJuSo cells (Homo sapiens, MEL-JUSO).
Regarding `CC(C)(C)OC(=O)N1CCOC(CNC(=O)C2(C)C(c3ccc(Cl)o3)C(c3ccc(F)cc3F)=NN2c2ccc(F)cc2F)C1` (stereo not drawn) [Compound 138, tert-butyl 2-((4-(5-chlorofuran-2-yl)-1,3-bis(2,4-difluorophenyl)-5-methyl-4,5-dihydro-1H-pyrazole-5-carboxamido)methyl)morpholine-4-carboxylate], the IC50 with A549 cells (Homo sapiens, A549, 72 h) was greater than 2 µM; in the test on LOX cells (LOX, 72 h), greater than 2 µM; with MelJuSo cells (Homo sapiens, MEL-JUSO), greater than 2 µM.
In the case of `CCCCC1C(c2ccc(F)cc2)=NN(c2ccc(Cl)cc2)C1(C)C(=O)NCCCOC` (stereo not drawn) [Compound 13, 4-butyl-1-(4-chlorophenyl)-3-(4-fluorophenyl)-N-(3-methoxypropyl)-5-methyl-4,5-dihydro-1H-pyrazole-5-carboxamide], the IC50 in the test with A549 cells (Homo sapiens, A549, 72 h) was greater than 2 µM; in the test with LOX cells (LOX, 72 h) it was greater than 2 µM; in the test with MelJuSo cells (Homo sapiens, MEL-JUSO) it was greater than 2 µM.
Consider `CC(C)(CO)CCCNC(=O)C1(C)C(c2ccco2)C(c2ccc(F)cc2F)=NN1c1ccc(F)cc1F` (stereo not drawn) [Compound 115, 1,3-bis(2,4-difluorophenyl)-4-(furan-2-yl)-N-(5-hydroxy-4,4-dimethylpentyl)-5-methyl-4,5-dihydro-1H-pyrazole-5-carboxamide], for which the IC50 in the test on A549 cells (Homo sapiens, A549, 72 h) was in the range of 0.5 to 1 µM; with LOX cells (LOX, 72 h), 0.5 to 1 µM; with MelJuSo cells (Homo sapiens, MEL-JUSO) it was 0.25 to 0.5 µM.
As for `CCCCC1C(c2ccc(F)cc2)=NN(c2ccc(Cl)cc2F)C1(C)C(=O)NCCCC(C)(C)CO` (stereo not drawn) [Compound 23, 4-butyl-1-(4-chloro-2-fluorophenyl)-3-(4-fluorophenyl)-N-(5-hydroxy-4,4-dimethylpentyl)-5-methyl-4,5-dihydro-1H-pyrazole-5-carboxamide], the IC50 lay within 0.5 to 1 µM in the test with A549 cells (Homo sapiens, A549, 72 h); 0.5 to 1 µM in the test on LOX cells (LOX, 72 h); 0.25 to 0.5 µM in the test with MelJuSo cells (Homo sapiens, MEL-JUSO).
